The text below walks through data of US20260217677A1, “ORGANIC COMPOUNDS AS NLRP3 INHIBITORS” (KODIAK SCIENCES, INC., priority 2023, published 2026).

Bounds are passed on as bounds.

As a reminder, the IC50 is the concentration that inhibits the measured activity by half.

The first experiment has as its system IL-1β release in U937 cells after NLRP3 activation. Description: IL-1β release inhibition in U937 cells (MSD V-Plex). Particulars: Homo sapiens, U-937, read-out: IL-1β IC50, Table 3; PMA-differentiated U937 cells, 1 μg/mL LPS 3 h, compound 30 min, 10 mM nigericin 1 h.
Consider `Cc1cc(N[C@@H]2CCCN(CC(C)(C)C(=O)N3CCC(O)CC3)C2)nnc1-c1ccc(C(F)(F)F)cc1O` [Example 47, 3-[(3R)-3-({6-[2-Hydroxy-4-(trifluoromethyl)phenyl]-5-methylpyridazin-3-yl}amino)piperidin-1-yl]-1-(4-hydroxypiperidin-1-yl)-2,2-dimethylpropan-1-one], for which the IC50 fell in the range of 50 to 500 nM.

As to `Cc1cc(N[C@@H]2CCCN(CC(=O)NC34CC(O)(C3)C4)C2)nnc1-c1ccc(C(F)(F)F)cc1O` [Compound 13, (R)-2-(3-((6-(2-Hydroxy-4-(trifluoromethyl)phenyl)-5-methylpyridazin-3-yl)amino)piperidin-1-yl)-N-(3-hydroxybicyclo[1.1.1]pentan-1-yl)acetamide], the IC50 was in the range of 5 to 50 nM.

In the case of `Cc1c(-c2ccc(C(F)(F)F)cc2O)nnc2c1CCCN2[C@@H]1CCCN(C2CCN([C@H]3C[C@@H](O)C3)CC2)C1` [Example 45, 2-{4-Methyl-8-[(3R)-1′-[(1s,3s)-3-hydroxycyclobutyl]-[1,4′-bipiperidin]-3-yl]-5H,6H,7H-pyrido[2,3-c]pyridazin-3-yl}-5-(trifluoromethyl)phenol], the half-maximal inhibitory concentration (IC50) was in the range of 50 to 500 nM.

For `O=C(CN1CCC[C@@H](Nc2nnc(-c3ccc(C(F)(F)F)cc3O)c3c2COC3)C1)N1CC2(CCC(O)CC2)C1` [Compound 25, (R)-2-(3-((4-(2-Hydroxy-4-(trifluoromethyl)phenyl)-5,7-dihydrofuro[3,4-d]pyridazin-1-yl)amino)piperidin-1-yl)-1-(7-hydroxy-2-azaspiro[3.5]nonan-2-yl)ethan-1-one], the IC50 fell in the range of 5 to 50 nM.

Regarding `Cc1cc(N[C@@H]2CCCN(CC(=O)N3CC[C@@H](O)C3)C2)nnc1-c1ccc(C(F)(F)F)cc1O` [Compound 12, 2-((R)-3-((6-(2-Hydroxy-4-(trifluoromethyl)phenyl)-5-methylpyridazin-3-yl)amino)piperidin-1-yl)-1-((R)-3-hydroxypyrrolidin-1-yl)ethan-1-one], the IC50 is below 5 nM.

As to `Cc1cc(-c2ccc(C(F)(F)F)cc2O)nnc1N[C@@H]1CCCN(CC(=O)N2CC[C@H](O)C2)C1` [Example 31, 2-((R)-3-((6-(2-Hydroxy-4-(trifluoromethyl)phenyl)-4-methylpyridazin-3-yl)amino)piperidin-1-yl)-1-((S)-3-hydroxypyrrolidin-1-yl)ethan-1-one], the IC50 lay in the range of 50 to 500 nM.

In the case of `Cc1cc(N[C@@H]2CCCN(CC(=O)N3CC(O)C3)C2)nnc1-c1ccc(C(F)(F)F)cc1O` [Compound 8, (R)-2-(3-((6-(2-Hydroxy-4-(trifluoromethyl)phenyl)-5-methylpyridazin-3-yl)amino)piperidin-1-yl)-1-(3-hydroxyazetidin-1-yl)ethan-1-one], the IC50 fell in the range of 5 to 50 nM.

Turning to `Cc1cc(N[C@@H]2CCCN(CCN3CC(O)C(F)C3)C2)nnc1-c1ccc(C(F)(F)F)cc1O` (stereo partly drawn) [Compound 5, 4-Fluoro-1-(2-((R)-3-((6-(2-hydroxy-4-(trifluoromethyl)phenyl)-5-methylpyridazin-3-yl)amino)piperidin-1-yl)ethyl)pyrrolidin-3-ol], the IC50 was below 5 nM.

With `Cc1cc(N[C@@H]2CCCN(C3CCN(C(=O)N4CC(O)C4)CC3)C2)nnc1-c1ccc(C(F)(F)F)cc1O` [Example 40, (R)-(3-((6-(2-Hydroxy-4-(trifluoromethyl)phenyl)-5-methylpyridazin-3-yl)amino)-[1,4′-bipiperidin]-1′-yl) (3-hydroxyazetidin-1-yl)methanone], the IC50 was below 5 nM.

On to `Cc1cc(N[C@@H]2CCCN(CCN3CC(O)C3)C2)nnc1-c1ccc(C(F)(F)F)cc1O` [Example 37, (R)-1-(2-(3-((6-(2-Hydroxy-4-(trifluoromethyl)phenyl)-5-methylpyridazin-3-yl)amino)piperidin-1-yl)ethyl)azetidin-3-ol], for which the IC50 lay within 5 to 50 nM.

Take `Cc1cc(N[C@@H]2CCCN(CC(=O)NC3CC(O)C3)C2)nnc1-c1ccc(C(F)(F)F)cc1O` (stereo partly drawn) [Compound 10, 2-((R)-3-((6-(2-Hydroxy-4-(trifluoromethyl)phenyl)-5-methylpyridazin-3-yl)amino)piperidin-1-yl)-N-((1r,3R)-3-hydroxycyclobutyl)acetamide]: the IC50 fell in the range of 5 to 50 nM.

Consider `O=C(CN1CCC[C@@H](Nc2nnc(-c3ccc(C(F)(F)F)cc3O)c3c2COC3)C1)N1CC[C@H](O)C1` [Compound 26, 2-((R)-3-((4-(2-Hydroxy-4-(trifluoromethyl)phenyl)-5,7-dihydrofuro[3,4-d]pyridazin-1-yl)amino)piperidin-1-yl)-1-((S)-3-hydroxypyrrolidin-1-yl)ethan-1-one], for which the IC50 lay within 5 to 50 nM.

In the case of `Cc1cc(N[C@@H]2CCCN(CCN3CCC(O)CC3)C2)nnc1-c1ccc(C(F)(F)F)cc1O` [Compound 7, (R)-1-(2-(3-((6-(2-Hydroxy-4-(trifluoromethyl)phenyl)-5-methylpyridazin-3-yl)amino)piperidin-1-yl)ethyl)piperidin-4-ol], the half-inhibitory concentration (IC50) lay within 5 to 50 nM.

With `Cc1cc(N[C@@H]2CCCN(CC(=O)N3CCC(CO)CC3)C2)nnc1-c1ccc(C(F)(F)F)cc1O` [Example 58, (R)-2-(3-((6-(2-Hydroxy-4-(trifluoromethyl)phenyl)-5-methylpyridazin-3-yl)amino)piperidin-1-yl)-1-(4-(hydroxymethyl)piperidin-1-yl)ethan-1-one], the IC50 is 5 to 50 nM.

`Cc1cc(N[C@@H]2CCCN(CCOC(=O)N3CCC(O)CC3)C2)nnc1-c1ccc2sccc2c1O` [Example 69, (R)-2-(3-((6-(4-Hydroxybenzo[b]thiophen-5-yl)-5-methylpyridazin-3-yl)amino)piperidin-1-yl)ethyl 4-hydroxypiperidine-1-carboxylate]: the IC50 was below 5 nM.

For the molecule `Cc1cc(N[C@@H]2CCCN(CC(=O)N3CC(C)(CO)C3)C2)nnc1-c1ccc(C(F)(F)F)cc1O` [Example 48, (R)-2-(3-((6-(2-Hydroxy-4-(trifluoromethyl)phenyl)-5-methylpyridazin-3-yl)amino)piperidin-1-yl)-1-(3-(hydroxymethyl)-3-methylazetidin-1-yl)ethan-1-one], the IC50 was 5 to 50 nM.

With `Cc1cc(N[C@@H]2CCCN(CCC3CC(O)C3)C2)nnc1-c1ccc(C(F)(F)F)cc1O` (stereo partly drawn) [Example 66, (R)-2-(6-((1-(2-(3-Hydroxycyclobutyl)ethyl)piperidin-3-yl)amino)-4-methylpyridazin-3-yl)-5-(trifluoromethyl)phenol], the IC50 was below 5 nM.

As for `Cc1c(N[C@@H]2CCCN(C(=O)C34CC(O)(C3)C4)C2)nnc(-c2ccc(C(F)(F)F)cc2O)c1C` [Example 67, (R)-(3-((6-(2-hydroxy-4-(trifluoromethyl)phenyl)-4,5-dimethylpyridazin-3-yl)amino)piperidin-1-yl) (3-hydroxybicyclo[1.1.1]pentan-1-yl)methanone], the half-inhibitory concentration (IC50) was in the range of 5 to 50 nM.

For `O=C(CN1CCC[C@@H](Nc2nnc(-c3ccc(C(F)(F)F)cc3O)c3c2COC3)C1)N1CC(O)C1` [Compound 22, (R)-2-(3-((4-(2-Hydroxy-4-(trifluoromethyl)phenyl)-5,7-dihydrofuro[3,4-d]pyridazin-1-yl)amino)piperidin-1-yl)-1-(3-hydroxyazetidin-1-yl)ethan-1-one], the IC50 was in the range of 5 to 50 nM.

With `O=C(CN1CCC[C@@H](Nc2nnc(-c3ccc4sccc4c3O)c3c2COC3)C1)N1CCC(O)CC1` [Example 56, (R)-2-(3-((4-(4-Hydroxybenzo[b]thiophen-5-yl)-5,7-dihydrofuro[3,4-d]pyridazin-1-yl)amino)piperidin-1-yl)-1-(4-hydroxypiperidin-1-yl)ethan-1-one], the IC50 was in the range of 5 to 50 nM.

Staying with this experiment, now noted: Homo sapiens, U-937, read-out: IL-1β IC50, Table 4; PMA-differentiated U937 cells, 1 μg/mL LPS 3 h, compound 30 min, 10 mM nigericin 1 h.
Turning to `Cc1cc(N[C@@H]2CCCN(CC(=O)NC3CNC3)C2)nnc1-c1ccc(C(F)(F)F)cc1O` [Example 94, (R)—N-(Azetidin-3-yl)-2-(3-((6-(2-hydroxy-4-(trifluoromethyl)phenyl)-5-methylpyridazin-3-yl)amino)piperidin-1-yl)acetamide], the IC50 was above 500 nM.

Regarding `Cc1cc(N[C@@H]2CCCN(C3CC(N)C3)C2)nnc1-c1ccc(C(F)(F)F)cc1O` (stereo partly drawn) [Example 89, (R)-2-(6-((1-(3-Aminocyclobutyl)piperidin-3-yl)amino)-4-methylpyridazin-3-yl)-5-(trifluoromethyl)phenol], the IC50 is 5 to 50 nM.

As to `Cc1cc(N[C@@H]2CCCN(CCNCC3CCS(=O)(=O)CC3)C2)nnc1-c1ccc(C(F)(F)F)cc1O` [Example 109, (R)-4-(((2-(3-((6-(2-Hydroxy-4-(trifluoromethyl)phenyl)-5-methylpyridazin-3-yl)amino)piperidin-1-yl)ethyl)amino)methyl)tetrahydro-2H-thiopyran 1,1-dioxide], the IC50 lay in the range of 5 to 50 nM.

For the molecule `Oc1cc(C(F)(F)F)ccc1-c1nnc(N[C@@H]2CCCN(C3CCNCC3)C2)c2c1COC2` [Example 100, (R)-2-(4-([1,4′-Bipiperidin]-3-ylamino)-5,7-dihydrofuro[3,4-d]pyridazin-1-yl)-5-(trifluoromethyl)phenol], the IC50 was 5 to 50 nM.

On to `Cc1cc(N[C@@H]2CCCN(CC(=O)N(C)CCN)C2)nnc1-c1ccc(C(F)(F)F)cc1O` [Example 79, (R)—N-(2-Aminoethyl)-2-(3-((6-(2-hydroxy-4-(trifluoromethyl)phenyl)-5-methylpyridazin-3-yl)amino)piperidin-1-yl)-N-methylacetamide], for which the IC50 was 50 to 500 nM.

Consider `Cc1cc(N[C@@H]2CCCN(CC(=O)N3CCC4(CCNCC4)CC3)C2)nnc1-c1ccc(C(F)(F)F)cc1O` [Example 93, (R)-2-(3-((6-(2-Hydroxy-4-(trifluoromethyl)phenyl)-5-methylpyridazin-3-yl)amino)piperidin-1-yl)-1-(3,9-diazaspiro[5.5]undecan-3-yl)ethan-1-one], for which the IC50 lay within 50 to 500 nM.

The same experiment, now with this note: read-out: IL-1β IC50; Table 3; PMA-differentiated U937 cells, 1 μg/mL LPS 3 h, compound 30 min, 10 mM nigericin 1 h.
On to `Cc1cc(N[C@@H]2CCCN(C(=O)C3CCCC(O)C3)C2)nnc1-c1ccc(C(F)(F)F)cc1O` (single isomer, unassigned) [Example 70 Fraction B], for which the IC50 is below 5 nM.
